Measurements reported in PubChem BioAssay AID330 (DTP/NCI, 2004).
“And” between values parts separate entries of the source, which are not always exact repeats. Equal entries are not always repeated. Toxic doses and inconclusive results are not listed. Bridge positions count the residues as written; N and C are the ends. Peptide text beside a SMILES is read from it. I, II: the chains in the order shown. * marks the point of attachment. Cbz = O=C(OCc1ccccc1)*

Tested on: P388 leukemia ip, CD2F1 mice, survival T/C
Assay: NCI In Vivo Anticancer Drug Screen. Data for tumor model P388 Leukemia (intraperitoneal) in CD2F1 (CDF1) mice
Settings: endpoint: median survival time, higher = longer survival
Outline: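 Mice carrying the transplanted tumor received test compound or vehicle. Survival was recorded in each group, and the value is the treated-group measurement divided by that of the vehicle-treated control group.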

[1] = dose: 100.0 mg/kg/injection, schedule: Q04DX002 (ip), vehicle: saline with Tween-80
[2] = dose: 25.0 mg/kg/injection, schedule: Q01DX005 (ip), vehicle: Klucel (hydroxypropylcellulose) (HPC)
[3] = dose: 50.0 mg/kg/injection, schedule: Q01DX005 (ip), vehicle: Klucel (hydroxypropylcellulose) (HPC)
[4] = dose: 200.0 mg/kg/injection, schedule: Q01DX001 (ip), vehicle: Klucel (hydroxypropylcellulose) (HPC)
[5] = dose: 400.0 mg/kg/injection, schedule: Q01DX001 (ip), vehicle: Klucel (hydroxypropylcellulose) (HPC)
[6] = dose: 50.0 mg/kg/injection, schedule: Q01DX009 (ip), vehicle: Klucel (hydroxypropylcellulose) (HPC)
[7] = dose: 100.0 mg/kg/injection, schedule: Q01DX009 (ip), vehicle: Klucel (hydroxypropylcellulose) (HPC)
[8] = dose: 200.0 mg/kg/injection, schedule: Q01DX009 (ip), vehicle: Klucel (hydroxypropylcellulose) (HPC)

SMILES: O=C1CCCCc2ccc(O)cc21
- T/C (dose: 100.0 mg/kg/injection, schedule: Q01DX009 (ip), vehicle: gum acacia): 104 % of control
- T/C (dose: 200.0 mg/kg/injection, schedule: Q01DX009 (ip), vehicle: gum acacia): 102 % of control
- T/C (dose: 400.0 mg/kg/injection, schedule: Q01DX009 (ip), vehicle: gum acacia): 110 % of control

SMILES: CC(C)(C)NC1/C(=C\c2ccccc2)C(=O)c2ccccc2C1(C)C (centres undefined)
- T/C (dose: 25.0 mg/kg/injection, schedule: Q01DX009 (ip), vehicle: other): 109 % of control
- T/C (dose: 50.0 mg/kg/injection, schedule: Q01DX009 (ip), vehicle: other): 101 % of control
- T/C (dose: 100.0 mg/kg/injection, schedule: Q01DX009 (ip), vehicle: other): 110 % of control
- T/C (dose: 200.0 mg/kg/injection, schedule: Q01DX009 (ip), vehicle: other): 124 % of control

SMILES: CCN1/C(=C/C=C/C=C/c2oc3ccccc3[n+]2CC)Oc2ccccc21
- T/C (dose: 0.78 mg/kg/injection, schedule: Q01DX009 (ip), vehicle: saline): 104 % of control
- T/C (dose: 1.56 mg/kg/injection, schedule: Q01DX009 (ip), vehicle: saline): 104 % of control
- T/C (dose: 3.12 mg/kg/injection, schedule: Q01DX009 (ip), vehicle: saline): 110 % of control

SMILES: c1ccc2c(SC3CCC4CC5CC4C3C5)nccc2c1 (centres undefined)
- T/C (dose: 60.0 mg/kg/injection, schedule: Q01DX005 (ip), vehicle: saline with Tween-80): 91 % of control
- T/C (dose: 120.0 mg/kg/injection, schedule: Q01DX005 (ip), vehicle: saline with Tween-80): 94 % of control
- T/C (dose: 240.0 mg/kg/injection, schedule: Q01DX005 (ip), vehicle: saline with Tween-80): 91 % of control

SMILES: O=C1C=CC(=O)N1c1ccc(O)cc1
- T/C (dose: 1.25 mg/kg/injection, schedule: Q01DX009 (ip), vehicle: saline sonified): 95 % of control
- T/C (dose: 2.5 mg/kg/injection, schedule: Q01DX009 (ip), vehicle: saline sonified): 95 % of control

SMILES: Cc1nn(C)c(=O)[nH]c1=O
- T/C (dose: 50.0 mg/kg/injection, schedule: Q01DX005 (ip), vehicle: saline with Tween-80): 103 % of control
- T/C (dose: 100.0 mg/kg/injection, schedule: Q01DX005 (ip), vehicle: saline with Tween-80): 106 % of control
- T/C (dose: 200.0 mg/kg/injection, schedule: Q01DX005 (ip), vehicle: saline with Tween-80): 106 % of control

SMILES: CNC1C(O)C2Oc3c(cc(O)c4c3C(=O)c3cc5c(c(O)c3C4=O)C(OC3OC(C)C(OC)C(C)(OC)C3OC)CC(C)(O)C5)C(C)(O2)C1O (centres undefined)
- T/C (dose: 2.06 mg/kg/injection, schedule: Q04DX003 (ip), vehicle: other): 97 % of control
- T/C (dose: 4.12 mg/kg/injection, schedule: Q04DX003 (ip), vehicle: other): 102 % of control
- T/C (dose: 8.25 mg/kg/injection, schedule: Q04DX003 (ip), vehicle: other): 103 % of control
- T/C (dose: 16.5 mg/kg/injection, schedule: Q04DX003 (ip), vehicle: other): 124 % of control
- T/C (dose: 33.0 mg/kg/injection, schedule: Q04DX003 (ip), vehicle: other): 124 % of control

SMILES: COc1cc(C)c(OC)c(C/C=C(\C)CC2=C(CC(C)(C)O)C(=O)[C@]3(C)CCC[C@]3(C)C2)c1
- T/C (dose: 5.0 mg/kg/injection, schedule: Q01DX005 (ip), vehicle: saline with Tween-80): 105 % of control
- T/C (dose: 10.0 mg/kg/injection, schedule: Q01DX005 (ip), vehicle: saline with Tween-80): 94 % of control
- T/C (dose: 20.0 mg/kg/injection, schedule: Q01DX005 (ip), vehicle: saline with Tween-80): 94 % of control

SMILES: CCN(CC)CCSc1nnc(N)s1
- T/C (dose: 50.0 mg/kg/injection, schedule: Q01DX001 (ip), vehicle: saline): 103 % of control
- T/C (dose: 100.0 mg/kg/injection, schedule: Q01DX001 (ip), vehicle: saline): 103 % of control
- T/C (dose: 200.0 mg/kg/injection, schedule: Q01DX001 (ip), vehicle: saline): 99 % of control

SMILES: CC(=O)Nc1ccc(C)cc1C1SCCS1
- T/C (dose: 25.0 mg/kg/injection, schedule: Q01DX009 (ip), vehicle: saline with Tween-80): 90 % of control
- T/C (dose: 50.0 mg/kg/injection, schedule: Q01DX009 (ip), vehicle: saline with Tween-80): 105 % of control
- T/C (dose: 100.0 mg/kg/injection, schedule: Q01DX009 (ip), vehicle: saline with Tween-80): 97 % of control

SMILES: Cc1ccc(C(=NN=C(c2ccc(C)cc2)c2ccc(C)cc2)c2ccc(C)cc2)cc1
- T/C [1]: 90 % of control
- T/C (dose: 200.0 mg/kg/injection, schedule: Q04DX002 (ip), vehicle: saline with Tween-80): 93 % of control

SMILES: CC1NC(=O)C(NC(=O)OCc2ccccc2)COC(=O)C(C(C)C)NC(=O)C2CSSCC(NC1=O)C(=O)NC(C(C)C)C(=O)OCC(NC(=O)OCc1ccccc1)C(=O)NC(C)C(=O)N2 (centres undefined) (I: Cbz-SACV / II: Cbz-SACV; ester I:1-II:C, I:C-II:1; disulfide I:3-II:3; configuration not given here)
- T/C (dose: 1.25 mg/kg/injection, schedule: Q01DX005 (ip), vehicle: Klucel (hydroxypropylcellulose) (HPC)): 101 % of control
- T/C (dose: 2.5 mg/kg/injection, schedule: Q01DX005 (ip), vehicle: Klucel (hydroxypropylcellulose) (HPC)): 101 % of control
- T/C (dose: 5.0 mg/kg/injection, schedule: Q01DX005 (ip), vehicle: Klucel (hydroxypropylcellulose) (HPC)): 99 % of control
- T/C (dose: 10.0 mg/kg/injection, schedule: Q01DX005 (ip), vehicle: Klucel (hydroxypropylcellulose) (HPC)): 96 % of control
- T/C (dose: 12.5 mg/kg/injection, schedule: Q01DX005 (ip), vehicle: Klucel (hydroxypropylcellulose) (HPC)): 96 % of control
- T/C [2]: 96 % of control
- T/C [3]: 99 % of control

SMILES: COc1ccc2c3c(cnc2c1)P(C)(=O)CC3 (centres undefined)
- T/C (dose: 50.0 mg/kg/injection, schedule: Q01DX009 (ip), vehicle: saline): 101 % of control
- T/C (dose: 100.0 mg/kg/injection, schedule: Q01DX009 (ip), vehicle: saline): 96 % of control
- T/C (dose: 200.0 mg/kg/injection, schedule: Q01DX009 (ip), vehicle: saline): 102 % of control

SMILES: C=C1C(=O)O[C@@H]2C3=C(C)C(=O)C=C[C@]3(C)CC[C@@H]12
- T/C [1]: 109 % of control

SMILES: CCN(CC)CCOC(=O)Cc1cccc2c(=O)cc(-c3cccs3)oc12
- T/C [2]: 106 % of control
- T/C [3]: 104 % of control and 117 % of control
- T/C (dose: 100.0 mg/kg/injection, schedule: Q01DX005 (ip), vehicle: Klucel (hydroxypropylcellulose) (HPC)): 109 % of control
- T/C (dose: 200.0 mg/kg/injection, schedule: Q01DX005 (ip), vehicle: Klucel (hydroxypropylcellulose) (HPC)): 161 % of control

SMILES: NC(CCCCNc1ccc([N+](=O)[O-])cc1[N+](=O)[O-])C(=O)NC(Cc1ccc(O)cc1)C(=O)O (centres undefined)
- T/C (dose: 50.0 mg/kg/injection, schedule: Q01DX005 (ip), vehicle: saline + Tween-80 + alcohol): 101 % of control
- T/C (dose: 100.0 mg/kg/injection, schedule: Q01DX005 (ip), vehicle: saline + Tween-80 + alcohol): 101 % of control
- T/C (dose: 200.0 mg/kg/injection, schedule: Q01DX005 (ip), vehicle: saline + Tween-80 + alcohol): 103 % of control

SMILES: N#CCN(CC#N)CC#N
- T/C (dose: 1.56 mg/kg/injection, schedule: Q01DX009 (ip), vehicle: saline with Tween-80): 104 % of control
- T/C (dose: 1.56 mg/kg/injection, schedule: Q04DX003 (ip), vehicle: saline with Tween-80): 95 % of control
- T/C (dose: 3.13 mg/kg/injection, schedule: Q01DX009 (ip), vehicle: saline with Tween-80): 90 % of control
- T/C (dose: 3.13 mg/kg/injection, schedule: Q04DX003 (ip), vehicle: saline with Tween-80): 90 % of control
- T/C (dose: 6.25 mg/kg/injection, schedule: Q01DX009 (ip), vehicle: saline with Tween-80): 109 % of control
- T/C (dose: 6.25 mg/kg/injection, schedule: Q04DX003 (ip), vehicle: saline with Tween-80): 90 % of control

SMILES: O=C1C(N=Nc2cc(Cl)ccc2Cl)C(O)N(c2ccccc2)C(=S)N1c1cccc(Cl)c1Cl (centres undefined)
- T/C (dose: 100.0 mg/kg/injection, schedule: Q01DX001 (ip), vehicle: Klucel (hydroxypropylcellulose) (HPC)): 98 % of control
- T/C [4]: 97 % of control
- T/C [5]: 92 % of control

SMILES: Cc1ncc([N+](=O)[O-])n1CCOC(=O)c1ccc(Cl)cc1
- T/C [6]: 102 % of control
- T/C [7]: 100 % of control
- T/C [8]: 98 % of control

SMILES: CCC[CH2][Sn](=[O])[c]1ccccc1
- T/C (dose: 12.5 mg/kg/injection, schedule: Q04DX002 (ip), vehicle: saline with Tween-80): 100 % of control and 119 % of control
- T/C (dose: 25.0 mg/kg/injection, schedule: Q04DX002 (ip), vehicle: saline with Tween-80): 103 % of control and 106 % of control
- T/C (dose: 50.0 mg/kg/injection, schedule: Q04DX002 (ip), vehicle: saline with Tween-80): 103 % of control and 109 % of control
- T/C [1]: 103 % of control and 116 % of control

SMILES: COc1cc2c(cc1Br)C(=O)C(Br)(Br)CCC2Br (centres undefined)
- T/C [6]: 118 % of control
- T/C [7]: 118 % of control
- T/C [8]: 114 % of control

SMILES: CCCCN=Cc1ccccc1O.CCCCN=Cc1ccccc1O.[Cu]
- T/C [3]: 99 % of control

SMILES: COP(=O)(O)OC
- T/C [4]: 88 % of control
- T/C [5]: 100 % of control
